Assay results: ChEMBL document CHEMBL1201862, “PubChem BioAssay data set” (2004)
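Dose response: 5 concentrations. Exposure: 48 h. Format: 96-well plates. Endpoint: linear interpolation; highest concentration if not reached. GI50 = concentration required for 50% inhibition of growth.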 Activity calls are given as the source filed them. Cut-off read from the data, not from the text of the source: active = GI50 up to about 1.1 µM and inactive = higher.

Columns and labels:
Assay in all cases: inhibition of tumour cell growth, NCI panel, 48 h
HL-60 = test system: HL-60
SF-539 = test system: SF-539
K562 = test system: K562
NCI-H23 = test system: NCI-H23
ACHN = test system: ACHN
RPMI-8226 = test system: RPMI-8226
SK-MEL-5 = test system: SK-MEL-5
UACC-257 = test system: UACC-257
HCC 2998 = test system: HCC 2998
SW-620 = test system: SW-620
EKVX = test system: EKVX
UO-31 = test system: UO-31
SK-MEL-2 = test system: SK-MEL-2
UACC-62 = test system: UACC-62
NCI-H522 = test system: NCI-H522
NCI-H226 = test system: NCI-H226
HCT-116 = test system: HCT-116

Measured: GI50

CC1CCCP(=O)(c2ccccc2)CCC1 (stereo not drawn)
inactive: HL-60 > 100 µM | SF-539 > 100 µM | K562 > 100 µM | NCI-H23 > 100 µM | ACHN > 100 µM | RPMI-8226 > 100 µM | SK-MEL-5 > 100 µM | UACC-257 > 100 µM | HCC 2998 > 100 µM | SW-620 > 100 µM | EKVX > 100 µM | UO-31 > 100 µM | SK-MEL-2 > 100 µM | UACC-62 > 100 µM

N#CC1(Cc2ccccc2[N+](=O)[O-])c2ccccc2C2C(N1C(=O)c1ccccc1)C2(Cl)Cl (stereo not drawn)
inactive: NCI-H522 > 100 µM | SF-539 > 100 µM | K562 > 100 µM | NCI-H226 > 100 µM | NCI-H23 > 100 µM | ACHN 13.2 µM | HCT-116 > 100 µM | SK-MEL-5 > 100 µM | UACC-257 > 100 µM | HCC 2998 3.76 µM | SW-620 > 100 µM | EKVX > 100 µM | UO-31 > 100 µM | SK-MEL-2 > 100 µM | UACC-62 > 100 µM

COc1cccc(NC(=O)CC(=O)N2NC(C)C(/N=N/c3cccc(C(=O)O)c3)C2=O)c1 (stereo not drawn)
inactive: NCI-H522 > 100 µM | SF-539 > 100 µM | K562 > 100 µM | NCI-H226 > 100 µM | NCI-H23 > 100 µM | ACHN > 100 µM | HCT-116 > 100 µM | RPMI-8226 > 100 µM | SK-MEL-5 > 100 µM | UACC-257 > 100 µM | HCC 2998 > 100 µM | SW-620 > 100 µM | EKVX > 100 µM | UO-31 > 100 µM | SK-MEL-2 > 100 µM | UACC-62 > 100 µM

CC(=O)OCC1OC(OC2C(COC(C)=O)OC(Sc3ccccc3C)C(OC(C)=O)C2OC(C)=O)C(OC(C)=O)C(OC(C)=O)C1OC(C)=O (stereo not drawn)
inactive: NCI-H522 > 100 µM | SF-539 > 100 µM | K562 > 100 µM | NCI-H226 > 100 µM | NCI-H23 > 100 µM | ACHN > 100 µM | HCT-116 > 100 µM | RPMI-8226 > 100 µM | SK-MEL-5 > 100 µM | UACC-257 > 100 µM | HCC 2998 > 100 µM | SW-620 > 100 µM | EKVX > 100 µM | UO-31 > 100 µM | SK-MEL-2 > 100 µM | UACC-62 > 100 µM

N=C(c1ccccc1)N(c1ccccc1)c1ccccc1
inactive: HL-60 20.8 µM | NCI-H522 73.3 µM | SF-539 74.1 µM | NCI-H226 23.1 µM | NCI-H23 > 100 µM | HCT-116 40.5 µM | UACC-257 > 100 µM | HCC 2998 > 100 µM | SW-620 > 100 µM | EKVX 93.3 µM | UO-31 68.5 µM | SK-MEL-2 > 100 µM

CC1(C)N=C(c2ccccn2)C(c2ccccn2)=NC1(C)C
inactive: HL-60 > 100 µM | SF-539 > 100 µM | K562 > 100 µM | NCI-H226 > 100 µM | ACHN > 100 µM | HCT-116 > 100 µM | RPMI-8226 > 100 µM | SK-MEL-5 > 100 µM | UACC-257 > 100 µM | HCC 2998 > 100 µM | SW-620 > 100 µM | EKVX > 100 µM | UO-31 > 100 µM | SK-MEL-2 > 100 µM | UACC-62 > 100 µM

N#CC(C(=O)/C(=N/NC(=O)c1ccccc1O)C(C#N)c1ccc(Br)cc1)c1ccc(Br)cc1 (stereo not drawn)
inactive: NCI-H522 11.4 µM | SF-539 10.6 µM | K562 5.74 µM | NCI-H226 5.52 µM | NCI-H23 4.74 µM | ACHN 13.7 µM | HCT-116 12.9 µM | SK-MEL-5 9.55 µM | UACC-257 15.1 µM | HCC 2998 12.1 µM | SW-620 4.02 µM | EKVX 15.6 µM | UO-31 13.3 µM | SK-MEL-2 12.2 µM | UACC-62 6.71 µM

CCOC(=N)CC(=O)Nc1cccc(Cl)c1
inactive: HL-60 > 100 µM | NCI-H522 > 100 µM | SF-539 > 100 µM | K562 > 100 µM | NCI-H226 > 100 µM | NCI-H23 4.9 µM | ACHN > 100 µM | HCT-116 > 100 µM | SK-MEL-5 > 100 µM | UACC-257 > 100 µM | HCC 2998 67 µM | SW-620 > 100 µM | EKVX > 100 µM | UO-31 > 100 µM | SK-MEL-2 > 100 µM | UACC-62 > 100 µM

NC(=O)C(c1ccccc1)N1CCOCC1 (stereo not drawn)
inactive: HL-60 > 100 µM | NCI-H522 > 100 µM | SF-539 > 100 µM | K562 > 100 µM | NCI-H226 > 100 µM | NCI-H23 > 100 µM | ACHN > 100 µM | HCT-116 > 100 µM | RPMI-8226 > 100 µM | SK-MEL-5 > 100 µM | UACC-257 > 100 µM | SW-620 > 100 µM | UO-31 > 100 µM | SK-MEL-2 > 100 µM | UACC-62 > 100 µM

Nc1c2ccccc2nc2c(C(=O)Nc3ccc(S(N)(=O)=O)cc3)cccc12
inactive: NCI-H522 21.8 µM | SF-539 13.2 µM | K562 28.6 µM | NCI-H226 84.3 µM | NCI-H23 > 100 µM | ACHN > 100 µM | HCT-116 67.5 µM | RPMI-8226 33.1 µM | SK-MEL-5 86.3 µM | UACC-257 > 100 µM | HCC 2998 > 100 µM | SW-620 66.2 µM | EKVX > 100 µM | UO-31 46.3 µM | SK-MEL-2 > 100 µM | UACC-62 97.5 µM

CC1=C(C(=O)Nc2ccccc2C)C(c2ccccc2)C(C(=O)Nc2ccccc2C)=C(C)N1
inactive: HL-60 15.2 µM | NCI-H522 28.6 µM | SF-539 60.4 µM | K562 22.6 µM | NCI-H226 > 100 µM | NCI-H23 23.7 µM | ACHN 26.3 µM | HCT-116 24.3 µM | SK-MEL-5 29.2 µM | UACC-257 37.8 µM | HCC 2998 32.4 µM | SW-620 30.5 µM | EKVX 27.7 µM | UO-31 35.2 µM | SK-MEL-2 26.6 µM | UACC-62 27.1 µM

COC(=O)[C@]12CCC(C)[C@H](C)[C@H]1C1=CCC3[C@@]4(C)CC[C@H](OC(C)=O)C(C)(C)C4CC[C@@]3(C)C1(C)C(O)C2 (stereo partly drawn)
inactive: NCI-H522 > 100 µM | SF-539 > 100 µM | K562 89.1 µM | NCI-H226 27.1 µM | NCI-H23 > 100 µM | ACHN > 100 µM | HCT-116 54.2 µM | RPMI-8226 53.7 µM | SK-MEL-5 > 100 µM | UACC-257 > 100 µM | HCC 2998 > 100 µM | SW-620 > 100 µM | EKVX > 100 µM | UO-31 > 100 µM | SK-MEL-2 > 100 µM | UACC-62 > 100 µM

COc1ccc(/C=C(/C(=O)O)c2cc(OC)c(OC)c(OC)c2)cc1
inactive: NCI-H522 16.8 µM | SF-539 19.3 µM | K562 38.5 µM | NCI-H226 44.8 µM | NCI-H23 27.2 µM | ACHN > 100 µM | HCT-116 53.3 µM | RPMI-8226 33.8 µM | SK-MEL-5 41.1 µM | UACC-257 31.5 µM | HCC 2998 > 100 µM | SW-620 61 µM | EKVX > 100 µM | UO-31 39.5 µM | SK-MEL-2 47.5 µM | UACC-62 43.6 µM
